The values that follow are results of earlier work, collected in article PMC11053489 (Viruses, 2024).

This data set deals with SARS-CoV-2 with mutations in the RNA-dependent RNA polymerase gene. Conditions: cited from earlier work.

With `CCC(CC)COC(=O)[C@H](C)N[P@](=O)(OC[C@H]1O[C@@](C#N)(c2ccc3c(N)ncnn23)[C@H](O)[C@@H]1O)Oc1ccccc1` [Remdesivir], the “increase in EC50 of resistant lineages” value was 2.5 to 10 fold.
